From patent US20230279372A1, “METHODS TO CONTROL LIPOKINE CONCENTRATIONS AND USES THEREOF” (Ohio State Innovation Foundation, priority 2020, published 2023) come the findings set out here.

The test system of test [1] is Wild-type C57BL/6 male mice. Kind of test: Acute injection, in vivo cardiac hemodynamics (pressure-volume analysis) in wild-type mice. The conditions noted are these: acute injection via femoral vein, 1.5 μg/kg; compared to mice injected with saline. From the text:
(§1) Cardiac pressure-volume analysis. Hemodynamic, systolic, and diastolic measurements performed as previously done. Briefly, mice were anesthetized with 1% isoflurane and a 1.4 F Millar catheter was advanced from the carotid artery into the left ventricle. LV pressure-volume dynamics were simultaneously measured over a wide range of heart rates (240-600 bpm). For the TNT experiments, since there were different baseline heart rates, data was normalized to the lowest heart rate. For the acute injection experiments, 12,13-diHOME, 9,10-diHOME, or 9-HODE were infused through the femoral vein (all at 1.5 μg/kg). All pressure-volume loop parameters were calculated using PV loop analysis software module for Lab Chart on ADInstruments.
Both +BAT and exercise improved cardiac function in mice and increased circulating 12,13-diHOME. To determine if 12,13-diHOME was responsible for the improved cardiac function in +BAT and exercise-trained mice, mice were acutely injected with 12,13-diHOME and in vivo cardiac hemodynamics were measured. Acute treatment of 12,13-diHOME improved systolic function (FIG. 3A; FIG. 8A) and diastolic function (FIG. 3B; FIG. 8B) compared to mice injected with saline. There was no effect of 9,10-diHOME or 9-HODE to alter systolic (FIG. 3A; FIG. 8A) or diastolic function (FIG. 3B; FIG. 8B).

A further test relates to NOS1^−/− mice. Kind of test: Acute injection of 12,13-diHOME, in vivo cardiac hemodynamics in NOS1−/− mice.
Description: as §1
Next, the mechanism through which 12,13-diHOME modulates cardiomyocyte function and respiration was investigated. It was shown that nitric oxide (NO) production via NO synthase type 1 (NOS1) is essential for the beneficial effects of exercise to the heart. Since +BAT had similar effects on the heart as exercise, 12,13-diHOME can function through a similar mechanism. Mice deficient in NOS1 (NOS1^−/−) were acutely injected with 12,13-diHOME and in vivo cardiac hemodynamics were measured. […] In addition, 12,13-diHOME had no effect on NOS1^−/− cardiomyocyte peak shortening, Ca^2+ transients, or kinetics (FIGS. 5C-5F).

Test [2] deals with isolated cardiomyocytes. As to the kind of experiment: Cardiomyocyte sarcomere function and calcium transient, wild-type cardiomyocytes. It is filed as cell-based, mice. The conditions noted are these: acute superfusion of 10 μM; vs vehicle. As to the method: (§2) Measurements of Cardiomyocyte Sarcomere Function and Calcium Transient. Cardiomyocytes were isolated from wild-type C57BL/6 male mice (Charles River) or NOS1^−/− mice (B6; 129S4-Nos1^tm1Plh/J; stock no. 002633; Jackson Labs). Unloaded cardiomyocyte function (sarcomere shortening, kinetics and Ca^2+ transients) were measured as previously performed. In brief, hearts were rapidly excised and cannulated on a constant-flow Langendorff perfusion apparatus, and perfused via the aorta at 37° C. with buffer containing (in mM) 113 NaCl, 4.7 KCl, 0.6 KH2PO4, 0.6 Na2HPO4, 1.2 MgSO4, 12.4 BMD, 12 NaHCO3, 10 KHCO3, 10 HEPES 1M, and 30 Taurine, followed by digestion with liberase enzyme (0.25 mg/ml). After perfusion and digestion ventricles were removed and minced (under sterile conditions), filtered, and equilibrated with 1 mM CaCl2 and FBS at room temperature. Cardiomyocytes were plated on laminin-coated glass slides and placed on the stage of an inverted Olympus IX-71 microscope and superfused (˜1 ml/min at 30° C.) with contractile buffer containing (in mM, pH 7.4) 4 KCl, 131 NaCl, 1 MgCl2, 10 HEPES, 1 CaCl2), and 10 glucose. The cells were visualized using a 40× objective and field-stimulated at 1 Hz for 3 ms using a Myopacer Field-Stimulator system. Sarcomere length, time to contraction/relaxation and contraction/relaxation kinetics will were recorded using the IonOptix video imaging system and a Myocam-S Digital charge-coupled device camera. Changes in intracellular Ca^2+ levels were monitored using (0.5 μM) Fura-2 dual-excitation (360/380 nm) single emission (510 nm) ratiometric imaging. Measurements were taken at baseline and with acute superfusion of 10 μM 12,13-diHOME.

Another test deals with NOS1^−/− cardiomyocyte. As to the kind of experiment: Cardiomyocyte sarcomere function and calcium transient, NOS1−/− cardiomyocytes. It is filed as cell-based, mice. The conditions noted are these: vs PBS. As to the method:
as §2

The subject of test [3] is cardiomyocytes constitutively expressing luciferase. As to the kind of experiment: Cardiomyocyte fatty acid uptake (FFA-SS-Luc). The conditions noted are these: 10 μM, 10 μM FFA-SS-Luc, after 30 min of incubation; vs vehicle. It is filed as cell-based, mice. As to the method: Cardiomyocyte Fatty Acid Uptake. Cardiomyocytes were isolated from 12-24 week old male LucTg (FVB-Tg(CAG-luc-GFP)L2G85Chco/J; stock no. 008450; Jackson Labs) chow-fed mice. Isolated cardiomyocytes (50,000 cells per well) were seeded onto laminin-coated 12-well plates according to standard protocols in FBS-free media for one hour. After one hour of serum-starve, 10 μm FFA-SS-Luc (Intrace Medical) conjugated probe was added to each well with or without 10 μM 12,13-diHOME directly before imaging using the IVIS Spectrum for […] optical imaging using sequential 3 min exposures for 30 min. Data were analyzed using Living Image Software, and movies were assembled from individual images using ImageJ.
Previous studies have indicated a role for 12,13-diHOME to increase fatty acid uptake. To test whether 12,13-diHOME increases fatty acid uptake in cardiomyocytes, cardiomyocytes constitutively expressing luciferase in vitro were isolated. Cells were treated with FFA-SS Luc, a fatty acid conjugated to luciferin, in the presence of 12,13-diHOME or a vehicle control.

Test [4] has as its system isolated cardiomyocytes. As to the kind of experiment: Seahorse bioanalyzer respiration, wild-type cardiomyocytes. Type of test: cell-based, mice. As to the method:
(§3) Seahorse bioanalyzer. Cardiomyocytes were isolated from 12-24 week old male C57BL/6 male (Charles river) or NOS1^−/− mice (B6; 129S4-Nos1^tm1Pth/J; stock no. 002633; Jackson Labs), chow fed mice. Isolated cardiomyocytes (25,000 per well) were seeded onto laminin-coated Seahorse Plates (Agilent) according to standard protocols. Cells were treated for 1 h with 10 μM 12,13-diHOME or were untreated. The oxygen-consumption rates (OCR; indicating mitochondrial respiration) and extracellular acidification rates (ECAR; indicating glycolysis rate) were monitored in a Seahorse XF24 instrument using the standard protocol of 3-min mix, 2-min wait and 3-min measure. Carbonyl cyanide-p-trifluoromethoxy-phenyl-hydrazon (FCCP; 2 μM) was used to determine the cells maximal respiratory capacity by allowing the electron transport chain to function at its maximal rate (maximal respiratory capacity is derived by subtracting non-mitochondrial respiration from the FCCP rate). Oligomycin (a complex V inhibitor; 2 μM) was used to derive ATP-linked respiration (by subtracting the oligomycin rate from baseline cellular OCR) and proton leak respiration (by subtracting non-mitochondrial respiration from the oligomycin rate). AntimycinA/Roteone (mitochondrial inhibitors; 0.5 μM) was used to determine non-mitochondrial respiration. For mechanistic experiments, cells were treated for 1 h with tetracaine (specific RyR inhibitor; 1 mM), 2,3-butanedione monoxime (BDM; myosin-ATPase inhibitor; […]) and nifedipine (L-type calcium channel inhibitor; 10 μM) were used. Data from wells of the same treatment group were averaged together and analyzed directly using Waves software. For the normalization of respiration to protein content, cells were lysed in RIPA buffer and protein concentration was measured by Bradford assay.

A further test deals with NOS1^−/− cardiomyocytes. As to the kind of experiment: Seahorse bioanalyzer respiration, NOS1−/− cardiomyocytes. It is filed as cell-based, mice. The conditions noted are these: vs vehicle. As to the method: as §3
The test system of the next test is Sham or +BAT mice. As to the kind of experiment: Oral gavage of sEH inhibitors in Sham or +BAT mice, in vivo cardiac hemodynamics. The conditions noted are these: daily oral gavage 0.5 mg/kg for 2 weeks, starting 10 weeks after surgery. The method, then: Oral gavage of sEH inhibitors. C57BL/6 male mice (Charles River Laboratories) were fed a normal chow diet before and throughout the experiment. Sham and +BAT mice underwent daily oral gavage of sEH inhibitors beginning 10 weeks after the transplant or sham surgery. Mice underwent daily oral gavage with vehicle (Phosphate Buffer Saline [PBS]), or 25 mg/L AUDA in PBS (Cayman Chemicals #10007927), or 50 mg/L t-AUCB in PBS (Cayman Chemicals #16568). Mice were gavaged at 0.5 mg/kg daily for 14-16 days.
as §1, with “ADInstruments. […]” for “ADInstruments.”

Where [5] appears, read: incubation with RyR2 inhibitor tetracaine.

Consider `CCCCC/C=C\CC(O)C(O)CCCCCCCC(=O)O` (stereo not drawn) [9,10-diHOME], for which, in test [1], the diastolic function result is “no effect” and the systolic function entry is recorded as “no effect”.

As for `CCCCC/C=C\C=C\C(O)CCCCCCCC(=O)O` (stereo not drawn) [9-HODE], in test [1], the diastolic function entry was “no effect” and the systolic function result was “no effect”.

With `CCCCCC(O)C(O)C/C=C\CCCCCCCC(=O)O` (stereo not drawn) [12,13-diHOME], in test [1], the diastolic function entry is given as “improved” and the systolic function result is recorded as “improved”. Further, in the test on NOS1^−/− mice, the diastolic function entry is reported as “no effect” and the systolic function entry is “no effect”. Besides, in the test on isolated cardiomyocytes [2], the “Ca2+ transient amplitude” value is reported as “increase”, the “maximal velocity of relengthening (−dL/dt)” value is given as “greater”, the “maximal velocity of shortening (+dL/dt)” value is listed as “greater” and the peak cardiomyocyte shortening entry is reported as “increased”. Moreover, in the test with NOS1^−/− cardiomyocyte, the “Ca2+ transients” value is “no effect”; the “kinetics (maximal velocity of shortening and relengthening)” value is “no effect”; the peak shortening entry is “no effect”. Moreover, the fatty acid uptake result in test [3] is reported as “significantly elevated”. In addition, in the test on isolated cardiomyocytes [4] (10 μM for 1 h, vs vehicle), the “basal oxygen consumption rates (OCR)” value is on record as “increased”, the maximal respiratory capacity entry is on record as “increased” and the non-mitochondrial respiration entry is given as “increased”. For the same compound, in the test with isolated cardiomyocytes [4] (in the presence or absence of RyR2 inhibitor tetracaine), the “basal OCR” value is reported as “increased”. In the test with isolated cardiomyocytes [4] (setting [5]), the “effect of 12,13-diHOME on maximal respiration” value was “blunted” and the “effect of 12,13-diHOME on non-mitochondrial respiration” value is “blunted”. For the same compound, in the test on isolated cardiomyocytes [4] (with myosin inhibitor BDM), the “effect of 12,13-diHOME on basal OCR under myosin inhibition” value is on record as “did not prevent”, the “effect of 12,13-diHOME on maximal respiration under myosin inhibition” value is “did not prevent” and the “effect of 12,13-diHOME on non-mitochondrial respiration under myosin inhibition” value is “prevented the increase”. Moreover, in the test on NOS1^−/− cardiomyocytes, the “basal oxygen consumption rates (OCR)” value is “no effect”, the maximal respiratory capacity entry is recorded as “no effect” and the non-mitochondrial respiration entry is “no effect”.

With `O=C(O)CCCCCCCCCCCNC(=O)NC12CC3CC(CC(C3)C1)C2` [AUDA], in the test on Sham or +BAT mice, the “cardiac function (systolic and diastolic) of +BAT vs Sham mice in the presence of sEH inhibitor” value is “no effect of +BAT to improve cardiac function”.

Consider `CCCCNc1ccc(C(=O)OCCN(C)C)cc1` [tetracaine, reference compound], for which the maximal respiration result in the test with isolated cardiomyocytes [4] (tetracaine 1 mM for 1 h, independent of 12,13-diHOME) is given as “decrease”.
